Legend:
Assay type in all cases: in vivo
Pyricularia oryzae = test: whole plant or invertebrate; details: foliar, read-out: Activity against Fungal Diseases PYRIOR (percent disease control)
[1] = system: Pseudoperonospora cubensis; test: Cucumber Downy Mildew foliar spray test, inoculated one day after treatment; details: applied to foliage at 200 ppm, cucumber plants, read-out: Activity against Fungal Diseases PSPECU (percent disease control)
Protocol: Fungicide activity data are the level (in percent) at which the given disease was controlled when the given compound was applied to the foliage of the plants at 200 ppm. In a few cases (noted in the table) the compound was applied to the plants at 25 ppm or 3 ppm. The plants were inoculated with the fungus one day after treatment. ***=80-100% control; **=50-79% control; *=0-49% control. […] The activity of the compounds as effective fungicides was determined by applying the compounds to plants and observing control of fungal disease. […] All plants were inoculated with spores of the fungus the day after treatment, then incubated in an environment conducive to disease development. Disease severity was evaluated 4 to 25 days (d) later, depending on the speed of disease development. The following experiments were performed in the laboratory to determine the fungicidal efficacy of the compounds of the invention. Cucumber Downy Mildew (causal agent Pseudoperonospora cubensis; Bayer code […]): Cucumber plants (variety 'Bush Champion' or 'Bush Pickle Hybrid') were grown from seed in a soil-less peat-based potting mixture (Metromix) until the first true leaf was 20-80% expanded. Each pot contained 1 seedling. These plants were sprayed until wet with the formulated test compound. On the following day, the leaves were inoculated with an aqueous suspension of downy mildew sporangia and the plants were kept in high humidity for one day to permit sporangia to germinate and infect the leaf. The plants were then incubated in a growth chamber until disease developed on untreated control plants. […] The effectiveness of the test compounds at controlling disease when sprayed on leaves was determined by assessing the severity of disease on treated plants, then converting the severity to percent control based on the level of disease on untreated, inoculated plants.

[2] = system: Puccinia recondita tritici; test: Leaf Rust of Wheat foliar spray test, inoculated one day after treatment; details: applied to foliage at 200 ppm, wheat plants, read-out: Activity against Fungal Diseases PUCCRT (percent disease control)
Protocol: (§1) Fungicide activity data are the level (in percent) at which the given disease was controlled when the given compound was applied to the foliage of the plants at 200 ppm. In a few cases (noted in the table) the compound was applied to the plants at 25 ppm or 3 ppm. The plants were inoculated with the fungus one day after treatment. ***=80-100% control; **=50-79% control; *=0-49% control. […] The activity of the compounds as effective fungicides was determined by applying the compounds to plants and observing control of fungal disease. […] All plants were inoculated with spores of the fungus the day after treatment, then incubated in an environment conducive to disease development. Disease severity was evaluated 4 to 25 days (d) later, depending on the speed of disease development. The following experiments were performed in the laboratory to determine the fungicidal efficacy of the compounds of the invention. […] Each pot contained 3-8 seedlings. These plants were sprayed until wet with the formulated test compounds. On the following day, the leaves were inoculated with an aqueous spore suspension of Puccinia recondita tritici and the plants were kept in high humidity overnight to permit spores to germinate and infect the leaf. The plants were then transferred to a greenhouse until disease developed on untreated control plants. […] The effectiveness of the test compounds at controlling disease when sprayed on leaves was determined by assessing the severity of disease on treated plants, then converting the severity to percent control based on the level of disease on untreated, inoculated plants.

Septoria tritici = test: Septoria Blotch of Wheat foliar spray test, inoculated one day after treatment; details: Zymoseptoria tritici, wheat plants, read-out: Activity against Fungal Diseases SEPTTR (percent disease control); for pest or weed control at 200 ppm: applied to foliage at 200 ppm; for pest or weed control at 25 ppm: Tested at 25 ppm
Protocol: as §1, with “3-10” for “3-8”, “compound.” for “compounds.”, “Septoria” for “Puccinia recondita”, “(one day in a dark dew chamber followed by two days in a lighted dew chamber)” for “overnight”

Row | Compound | pest or weed control at 200 ppm (Pyricularia oryzae) [%] | pest or weed control at 200 ppm [1] [%] | pest or weed control at 200 ppm [2] [%] | pest or weed control at 200 ppm (Septoria tritici) [%] | pest or weed control at 25 ppm (Septoria tritici) [%]
1 | FC(F)(F)c1ccnc(Oc2ccc(CCNc3ncnc4scnc34)cc2)c1 [Compound 7, thiazolo[5,4-d]pyrimidin-7-yl-{2-[4-(4-trifluoromethylpyridin-2-yloxy)-phenyl]-ethyl}-amine] | 80 to 100 | 80 to 100 | 80 to 100 | 80 to 100 | –
2 | FC(F)(F)c1cccnc1Oc1ccc(CCNc2ncnc3scnc23)cc1 [Compound 8, thiazolo[5,4-d]pyrimidin-7-yl-{2-[4-(3-trifluoromethylpyridin-2-yloxy)-phenyl]-ethyl}-amine] | 80 to 100 | 80 to 100 | 80 to 100 | 80 to 100 | –
3 | Cc1cc(Oc2cc(C(F)(F)F)ccn2)ccc1OCCNc1ncnc2scnc12 [Compound 9, {2-[2-methyl-4-(4-trifluoromethylpyridin-2-yloxy)-phenoxy]-ethyl}-thiazolo[5,4-d]pyrimidin-7-ylamine] | 80 to 100 | 80 to 100 | 80 to 100 | 80 to 100 | –
4 | Cc1cc(Oc2cc(C(F)(F)F)ccn2)c(C)cc1CCNc1ncnc2scnc12 [Compound 13, {2-[2,5-dimethyl-4-(4-trifluoromethylpyridin-2-yloxy)-phenyl]-ethyl}-thiazolo[5,4-d]pyrimidin-7-ylamine] | 80 to 100 | 80 to 100 | 80 to 100 | 80 to 100 | –
5 | COC(=O)c1cnc(Oc2ccc(CCNc3ncnc4scnc34)cc2)cc1C(F)(F)F [Compound 16, 6-{4-[2-(thiazolo[5,4-d]pyrimidin-7-ylamino)-ethyl]-phenoxy}-4-trifluoromethyl-nicotinic acid methyl ester] | 50 to 79 | 80 to 100 | 80 to 100 | 50 to 79 | –
6 | CC(Cc1ccc(Oc2cc(C(F)(F)F)ccn2)cc1)Nc1ncnc2scnc12 (centres unmarked) [Compound 18, {1-methyl-2-[4-(4-trifluoromethylpyridin-2-yloxy)-phenyl]-ethyl}-thiazolo[5,4-d]pyrimidin-7-ylamine] | 80 to 100 | 80 to 100 | 80 to 100 | 80 to 100 | –
7 | Cc1cc(CCNc2ncnc3scnc23)ccc1Oc1cc(C(F)(F)F)ccn1 [Compound 23, {2-[3-methyl-4-(4-trifluoromethylpyridin-2-yloxy)-phenyl]-ethyl}-thiazolo[5,4-d]pyrimidin-7-ylamine] | 80 to 100 | 80 to 100 | 80 to 100 | 80 to 100 | –
8 | Cc1cc(CCNc2ncnc3scnc23)ccc1Oc1ncccc1C(F)(F)F [Compound 24, {2-[3-methyl-4-(3-trifluoromethylpyridin-2-yloxy)-phenyl]-ethyl}-thiazolo[5,4-d]pyrimidin-7-ylamine] | 50 to 79 | 80 to 100 | 80 to 100 | 80 to 100 | –
9 | COC(=O)c1cnc(Oc2ccc(CCNc3ncnc4scnc34)cc2Br)cc1C(F)(F)F [Compound 27, 6-{2-bromo-4-[2-(thiazolo[5,4-d]pyrimidin-7-ylamino)-ethyl]-phenoxy}-4-trifluoromethyl-nicotinic acid methyl ester] | 80 to 100 | 80 to 100 | 80 to 100 | 50 to 79 | –
10 | COc1cc(CCNc2ncnc3scnc23)ccc1Oc1ccc(C(F)(F)F)cc1F [Compound 30, {2-[4-(2-fluoro-4-trifluoromethylphenoxy)-3-methoxyphenyl]-ethyl}-thiazolo[5,4-d]pyrimidin-7-ylamine] | 80 to 100 | 80 to 100 | 80 to 100 | – | 80 to 100
11 | COc1cc(CCNc2ncnc3scnc23)ccc1Oc1ccncc1C(F)(F)F [Compound 31, {2-[3-methoxy-4-(3-trifluoromethylpyridin-4-yloxy)-phenyl]-ethyl}-thiazolo[5,4-d]pyrimidin-7-ylamine] | 80 to 100 | 50 to 79 | 80 to 100 | – | 80 to 100
12 | COc1cc(CCNc2ncnc3scnc23)ccc1Oc1c(F)cnc(C(F)(F)F)c1F [Compound 32, {2-[4-(3,5-difluoro-2-trifluoromethylpyridin-4-yloxy)-3-methoxyphenyl]-ethyl}-thiazolo[5,4-d]pyrimidin-7-ylamine] | 80 to 100 | 80 to 100 | 80 to 100 | – | 80 to 100
13 | Fc1cnc(C(F)(F)F)c(F)c1Oc1ccc(CCNc2ncnc3scnc23)cc1 [Compound 33, {2-[4-(3,5-difluoro-2-trifluoromethylpyridin-4-yloxy)-phenyl]-ethyl}-thiazolo[5,4-d]pyrimidin-7-ylamine] | 80 to 100 | 80 to 100 | 80 to 100 | 80 to 100 | –
14 | CC(Nc1ncnc2scnc12)c1ccc(Oc2cc(C(F)(F)F)ccn2)cc1 (centres unmarked) [Compound 35, thiazolo[5,4-d]pyrimidin-7-yl-{1-[4-(4-trifluoromethylpyridin-2-yloxy)-phenyl]-ethyl}-amine] | 80 to 100 | 80 to 100 | 80 to 100 | 80 to 100 | –
15 | Fc1cnc(Oc2ccc(CCNc3ncnc4scnc34)cc2)c(F)c1C(F)(F)F [Compound 36, {2-[4-(3,5-difluoro-4-trifluoromethylpyridin-2-yloxy)-phenyl]-ethyl}-thiazolo[5,4-d]pyrimidin-7-ylamine] | 80 to 100 | 80 to 100 | 80 to 100 | 80 to 100 | –
16 | FC(F)(F)c1cc(Oc2ccc(CCNc3ncnc4scnc34)cc2)ccn1 [Compound 40, thiazolo[5,4-d]pyrimidin-7-yl-{2-[4-(2-trifluoromethylpyridin-4-yloxy)-phenyl]-ethyl}-amine] | 80 to 100 | 80 to 100 | 80 to 100 | 80 to 100 | –
17 | Fc1cc(CCNc2ncnc3scnc23)ccc1Oc1cc(C(F)(F)F)ccn1 [Compound 41, {2-[3-fluoro-4-(4-trifluoromethylpyridin-2-yloxy)-phenyl]-ethyl}-thiazolo[5,4-d]pyrimidin-7-ylamine] | 80 to 100 | 80 to 100 | 80 to 100 | 80 to 100 | –

Reference: patent US8921382B2, “Thiazolo[5,4-d] pyrimidines and their use as agrochemicals” (Dow AgroSciences, LLC., priority 2010, dated 2014)
